Laboratory results from paper PMC6225302, “Depsidone Derivatives and a Cyclopeptide Produced by Marine Fungus Aspergillus unguis under Chemical Induction and by Its Plasma Induced Mutant” (Molecules : A Journal of Synthetic Chemistry and Natural …, 2018).
In brackets after ≈: the same amount, converted by molar mass. Several values for one entry are separate records, joined by “and”; a condition that tells them apart may be missing. Equal entries are not always repeated. Where two headings read alike, the source gives them in different places. Where a SMILES comes first, the peptide text is derived from it. [ ]: non-standard residue; d: D form. GABA = NCCCC(=O)O

Experiments:
[1] = system: Vibrio parahemolyticus (ZouB); test: microbe, parasite or virus in culture; format: cell-based
Method: (§1) Preliminary antimicrobial tests for compounds 1‒10 were carried out against pathogenetic strains, including Pseudomonas aeruginosa (ATCC 9027), methicillin-resistant Staphylococcus aureus (A7983, clinical isolate donated by Zhijun Yu in Dalian Friendship Hospital, Dalian, China), Vibrio parahemolyticus (ZouB, aquatic pathogen donated by Chongqing Wen in College of Fishery, Guangdong Ocean University, Zhanjiang, China), and Candida albicans (ATCC 10231) using the disc diffusion method. Muller Hinton agar (MHA) and Sabouraud agar (SA) were used for antibacterial and antifungal tests, respectively. For each sample, 10 μg was added onto paper disc (diameter of 6 mm) for tests. The minimum inhibition concentrations (MICs) of the compounds were tested using microdilution methods. Ampicillin and ketoconazole were taken as positive controls for antibacterial and antifungal tests, respectively. Solvents (MeOH and DMSO) were used as blank controls.

[2] = system: Pseudomonas aeruginosa (ATCC 9027); test: Antimicrobial paper disc diffusion method; format: cell-based; settings: P. aeruginosa, 10 μg per disc, paper disc diameter 6.0 mm, mean ± SD of three replicates; for zone of inhibition at 10 µg/disc: Pseudomonas aeruginosa, ATCC9027
Method: as §1

[3] = system: Candida albicans (ATCC 10231); test: Antimicrobial paper disc diffusion method; format: cell-based; settings: C. albicans, 10 μg per disc, paper disc diameter 6.0 mm, mean ± SD of three replicates; for zone of inhibition at 10 µg/disc: Candida albicans, ATCC10231
Method: as §1

[4] = system: methicillin-resistant Staphylococcus aureus (A7983, clinical isolate); test: Antimicrobial paper disc diffusion method; format: cell-based; settings: MRSA; for zone of inhibition at 10 µg/disc: Staphylococcus aureus; for Zone of Inhibition: 10 μg per disc, paper disc diameter 6.0 mm, mean ± SD of three replicates
Method: as §1

[5] = system: Vibrio parahemolyticus (ZouB); test: Antimicrobial paper disc diffusion method; format: cell-based; settings: V. parahemolyticus, incomplete inhibition, 10 μg per disc, paper disc diameter 6.0 mm, mean ± SD of three replicates; for zone of inhibition at 10 µg/disc: Vibrio
Method: as §1

[6] = system: Pseudomonas aeruginosa (ATCC 9027); test: Antimicrobial microdilution method (MIC); format: cell-based; settings: ATCC9027, P. aeruginosa
Method: as §1

[7] = system: methicillin-resistant Staphylococcus aureus (A7983, clinical isolate); test: Antimicrobial microdilution method (MIC); format: cell-based; settings: MRSA
Method: as §1

[8] = molecular target: T1, Acetylcholinesterase (AChE, from electric eels) (Electrophorus electricus, UniProt O42275); test: AChE inhibition assay (modified Ellman's method); format: biochemical; settings: AChE Inhibitory Activity (IC50), 0.2 U/mL, 37 °C
T1 construct: purchased Sigma-Aldrich
Method: Acetylcholinesterase (AChE, from electric eels), acetythiocholine iodide (ATCh), 5,5-dithiobis-(2-nitrobenzoic acid) (DTNB), and bovine serum albumin (BSA, A1933) were purchased from Sigma-Aldrich. 100 mM PBS (pH = 7.4) was prepared with K2HPO4 and KH2PO4. In vitro AChE inhibitory activity was measured in 96-well plates using modified Ellman’s methods. […] Each well contained 1 μL of prepared sample, 49 μL of PBS, 10 μL of enzyme with a final concentration of 0.2 U/mL in BSA ([…] in PBS), and 20 μL of DTNB (5 mM in PBS). Then, the plates were preincubated at 37 °C for 10 min. Afterwards, 20 μL of ATCh (10 mM in PBS) was added into the well. After incubation at 37 °C for 20 min, the 96-well plates were read at 405 nm on the microplate reader, and the inhibition ratios to AChE were calculated using the following equation, where Asample blank stands for the absorbance of a well without enzyme, Asample stands for the absorbance of the treatment, Acontorl stands for the absorbance of the well without the sample, and Ablank stands for the absorbance of the well without the sample and enzyme. Donepezil was taken as a positive control. Inhibition of AChE (%)=[(Acontrol−Ablank)−(Asample−Asample blank)]/(Acontrol−Ablank)×100%
The inhibition rates and concentration logarithm (lnC) values were imported into the Origin 8.0 software (OriginLab Co., Ltd., Northampton, MA, USA). The cubic polynomial regression equation was used to calculate ln(IC50). Then, IC50 was calculated using Microsoft Excel.

[9] = system: Candida albicans (ATCC 10231); test: Antimicrobial microdilution method (MIC); format: cell-based; settings: ATCC10231, C. albicans
Method: as §1

[10] = DPPH free radical scavenging assay; settings: 0.16 mM DPPH, 30 min in darkness at room temperature
Method: The free radical scavenging potentials of compounds 1‒10 were evaluated in 96-well plates using the DPPH free radical scavenging assay described by Sharma and Bhat. A total of 100 μL of the reaction mixture was composed of 50 μL of 0.16 mM DPPH (Sigma-Aldrich, St. Louis, MO, USA) in methanol and 50 μL of the test compound (in DMSO) with different concentrations (Asample). The reaction mixture was incubated for 30 min in darkness at room temperature. Meanwhile, 50 μL of 0.16 mM DPPH with 50 μL of DMSO was used as control (Acontrol), 50 μL of methanol and 50 μL of different concentrations of the test compound in DMSO were used as the sample blanks (Asample blank), 50 μL methanol with 50 μL DMSO was used as the blank (Ablank), while vitamin C was taken as a positive control. The absorbance was measured at 517 nm on the microplate reader. Scavenging capacity (%)=[(Acontrol−Ablank)−(Asample−Asample blank)]/(Acontrol−Ablank)×100%
The EC50 value is the concentration required to scavenge 50% of DPPH radicals. Likewise, the EC50 was calculated using Origin 8.0 plotting and cubic polynomial regression.

[11] = Brine shrimp larva lethality test; format: in vivo, Artemia salina; settings: 24 h at 28 °C, read-out: Larvicidal Activity (LC50)
Method: Compounds 1‒10 were evaluated for larvicidality using the brine shrimp (Artemia salina) larva lethality test. 0.15 g of frozen eggs of brine shrimp larva (purchased from Aijia Aquarium Co., Zhanjiang, China) were activated at room temperature for 12 h. After activation, eggs were added to 1 L of artificial seawater (3% sea salt), ventilated with air for 420 mL/min, then kept at a brightness at 1000 lux and incubated at 28 °C for 24 h. After incubation, the larvae were induced to the top of the separating funnel by phototaxis, and the dead ones on bottom were discharged. Then, in each well of the 96-well plate, 1 μL of test compounds (in DMSO) with different concentrations and 99 μL of seawater containing 20‒30 live larvae were added. After incubation under light at 28 °C for 24 h, recorded the numbers of dead larvae. Finally, 10 μL of the Lucus reagent were added into each well and the total number of brine shrimp larva in the well were counted. DMSO and Hg(NO3)2 were used as blank control and positive control, respectively. Lethality rate (%)=(lethality of treatment−lethality of blank control)/survival rate of blank control×100%
The brine shrimp larva LC50 value is the concentration required to kill 50% of the larvae. Likewise, the LC50 was calculated using Origin 8.0 plotting and cubic polynomial regression.

[12] = Artemia salina (brine shrimp) larvae, live brine shrimp larvae in 96-well plate, other: immersion in seawater containing the compound

T1 sequence (O42275 24-633): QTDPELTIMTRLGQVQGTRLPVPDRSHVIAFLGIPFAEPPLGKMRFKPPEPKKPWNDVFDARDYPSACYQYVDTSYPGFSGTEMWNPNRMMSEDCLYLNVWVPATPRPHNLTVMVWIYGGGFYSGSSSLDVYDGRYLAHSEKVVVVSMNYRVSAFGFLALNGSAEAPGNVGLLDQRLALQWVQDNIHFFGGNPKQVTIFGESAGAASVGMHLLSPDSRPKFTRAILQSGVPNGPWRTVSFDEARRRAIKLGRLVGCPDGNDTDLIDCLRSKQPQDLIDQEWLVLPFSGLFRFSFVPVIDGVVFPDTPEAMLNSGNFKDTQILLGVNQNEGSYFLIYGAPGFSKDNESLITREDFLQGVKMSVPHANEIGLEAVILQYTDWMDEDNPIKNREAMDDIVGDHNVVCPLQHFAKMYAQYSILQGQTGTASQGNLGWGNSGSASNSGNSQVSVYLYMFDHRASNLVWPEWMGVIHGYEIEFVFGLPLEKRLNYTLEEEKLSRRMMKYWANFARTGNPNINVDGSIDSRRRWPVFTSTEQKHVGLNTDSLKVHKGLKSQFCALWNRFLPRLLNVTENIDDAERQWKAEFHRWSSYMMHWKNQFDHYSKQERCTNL

| Structure (SMILES) | MIC ([1]; Vibrio, V. parahemolyticus, microdilution method, read-out: MIC) [µM] | zone of inhibition at 10 µg/disc [2] [mm] | Zone of Inhibition [3] | zone of inhibition at 10 µg/disc [4] [mm] | zone of inhibition at 10 µg/disc [5] [mm] | MIC [6] [µM] | MIC [7] [µM] | MIC ([1]; Vibrio) [µM] | IC50 [8] | zone of inhibition at 10 µg/disc [3] [mm] | MIC [9] [µM] | EC50 [10] [µM] | LC50 at 24 h [11, 12] [µM] | Zone of Inhibition [2] | Zone of Inhibition [4] | Zone of Inhibition [5] | LC50 at 24 h ([11]; Artemia salina (brine shrimp) larvae, in vivo, other: compound added to the seawater holding the larvae) [µM] | MIC ([1]; V. parahemolyticus, microdilution method, read-out: MIC) [µM] | LC50 at 24 h ([11]; brine shrimp (Artemia salina), in vivo, brine shrimp larvae) [µM] |
| --- | --- | --- | --- | --- | --- | --- | --- | --- | --- | --- | --- | --- | --- | --- | --- | --- | --- | --- | --- |
| CC1(C)S[C@@H]2[C@H](NC(=O)[C@H](N)c3ccccc3)C(=O)N2[C@H]1C(=O)O [Ampicillin, reference compound] | 102 (≈ 35.8 µg/mL) | 12 ± 1.4 | - | 14 | 9 | 1.6 (≈ 0.559 µg/mL) | 6.4 (≈ 2.24 µg/mL) |  |  |  |  |  |  |  |  |  |  |  |  |
| C/C=C(\C)c1cc(OC(=O)c2c(C)cc(O)cc2O)c(C)c(O)c1C(=O)O [Compound 1, (E)-6-(but-2-en-2-yl)-4-((2,4-dihydroxy-6-methylbenzoyl)oxy)-2-hydroxy-3-methylbenzoic acid] |  | 7.7 ± 0.6 |  | 12 ± 1 | 9.3 ± 0.6 | 102 (≈ 38.1 µg/mL) | 51.2 (≈ 19.1 µg/mL) | > 102 | > 102 µM | 8.3 ± 0.6 | 12.8 (≈ 4.77 µg/mL) | > 102 | > 102 |  |  |  |  |  |  |
| C/C=C(\C)c1cc(O)c(C)c(OC(=O)c2c(/C(C)=C/C)cc(O)c(C)c2O)c1 [Compound 2, agonodepside A] |  |  |  |  | 8 |  |  | > 102 | > 102 µM | 6 ± 0.5 |  | > 102 | > 102 | - | - |  |  |  |  |
| CC=C(C)c1c(Cl)c(O)c(C)c2c1Oc1c(Cl)c(O)c(Cl)c(C)c1C(=O)O2 [Compound 3, nornidulin] |  | 12.2 ± 0.3 |  |  |  | > 102 |  |  | > 102 µM | 12.1 ± 0.2 | > 102 | > 102 |  |  | - | - | 12.8 |  |  |
| CC=C(C)c1c(Cl)c(OC)c(C)c2c1Oc1c(Cl)c(O)c(Cl)c(C)c1C(=O)O2 [Compound 4, nidulin] |  | 9.5 ± 0.6 |  | 9 |  | > 102 | 102 (≈ 45.4 µg/mL) |  | > 102 µM | 9 | > 102 | > 102 | 4.5 |  |  | - |  |  |  |
| CC=C(C)c1c(Br)c(O)c(C)c2c1Oc1c(Br)c(O)cc(C)c1C(=O)O2 [Compound 5, aspergillusidone F] |  | 11.9 ± 0.2 |  | 14.5 ± 0.6 | 6.3 ± 0.6 | 6.4 (≈ 3.1 µg/mL) | 25.6 (≈ 12.4 µg/mL) | > 102 | > 102 µM | 7.5 ± 0.6 | > 102 | > 102 | 12.8 |  |  |  |  |  |  |
| C/C=C(\C)c1cc(O)c(C)c2c1Oc1cc(O)cc(C)c1C(=O)O2 [Compound 6, unguinol] |  | 8.7 ± 2.1 |  | 7 | 7 | 102 (≈ 33.4 µg/mL) | > 102 | > 102 | > 102 µM | 8 ± 0.5 | > 102 | > 102 | > 102 |  |  |  |  |  |  |
| CC=C(C)c1c(Cl)c(O)c(C)c2c1Oc1cc(O)c(Cl)c(C)c1C(=O)O2 [Compound 7, aspergillusidone C] |  | 10 |  | 13.7 ± 2.3 | 9.7 ± 0.6 | 25.6 (≈ 10.1 µg/mL) | > 102 | > 102 | > 102 µM | 7.9 ± 0.2 | > 102 | > 102 | 72 |  |  |  |  |  |  |
| CC=C(C)c1cc(O)c(C)c2c1Oc1cc(O)c(Cl)c(C)c1C(=O)O2 [Compound 8, 2-chlorounguinol] |  | 11.1 ± 0.2 |  | 17 | 8.3 ± 0.6 | 51.2 (≈ 18.5 µg/mL) | 25.6 (≈ 9.24 µg/mL) | > 102 | > 102 µM | 10 | > 102 | > 102 | 75.9 |  |  |  |  |  |  |
| CC=C(C)c1c2c(c(C)c(O)c1C(=O)O)OC(=O)c1c(C)cc(O)cc1O2 [Compound 9, aspergillusidone A] |  | 16 |  | 17.7 ± 0.6 | 8.3 ± 0.6 | 102 (≈ 37.9 µg/mL) | 12.8 (≈ 4.74 µg/mL) | > 102 | 56.7 µM and 56.8 µM | 15.5 ± 2.2 | 6.4 (≈ 2.37 µg/mL) | > 102 | 51.2 |  |  |  |  |  |  |
| CC(C)[C@H]1NC(=O)[C@H](Cc2ccccc2)NC(=O)[C@@H](C(C)C)NC(=O)[C@@H](C)NC(=O)CCCNC(=O)[C@@H](Cc2c[nH]c3ccccc23)NC(=O)[C@@H](C)NC1=O [Compound 10, unguisin A] (cyclo(F[dV][dA][dW][GABA][dA][dV])) |  |  |  |  |  |  |  |  | > 102 µM |  |  |  |  |  |  |  |  | >102.4 | > 102 |
| CC(=O)N1CCN(c2ccc(OCC3COC(Cn4ccnc4)(c4ccc(Cl)cc4Cl)O3)cc2)CC1 (stereo not shown) [Ketoconazole, reference compound] |  |  |  |  |  |  |  |  |  | 22 | 1.9 (≈ 1.01 µg/mL) |  |  | - | - | - |  |  |  |
| O=C1O[C@H]([C@@H](O)CO)C(O)=C1O [Vitamin C, vitamin C, reference compound] |  |  |  |  |  |  |  |  |  |  |  | 31.8 |  |  |  |  |  |  |  |
